The values that follow are results of earlier work, collected in patent publication US20150164858A1, “COMBINATION COMPRISING PARTHENOLIDE FOR USE IN THE TREATMENT OF ALZHEIMER'S DISEASE AND OTHER NEURODEGENERATIVE DISORDERS” (King Abdullah University of Science and Technology, priority 2012, published 2015).

One data set relates to patients with AD. The settings on record: moderate to severe AD.
The target in another data set is TLR4 (Homo sapiens, UniProt O00206).
The subject of data set [1] is HEK293 cells stably expressing TLR4/MD-2/CD14.

Chain of TLR4 (O00206 24-839): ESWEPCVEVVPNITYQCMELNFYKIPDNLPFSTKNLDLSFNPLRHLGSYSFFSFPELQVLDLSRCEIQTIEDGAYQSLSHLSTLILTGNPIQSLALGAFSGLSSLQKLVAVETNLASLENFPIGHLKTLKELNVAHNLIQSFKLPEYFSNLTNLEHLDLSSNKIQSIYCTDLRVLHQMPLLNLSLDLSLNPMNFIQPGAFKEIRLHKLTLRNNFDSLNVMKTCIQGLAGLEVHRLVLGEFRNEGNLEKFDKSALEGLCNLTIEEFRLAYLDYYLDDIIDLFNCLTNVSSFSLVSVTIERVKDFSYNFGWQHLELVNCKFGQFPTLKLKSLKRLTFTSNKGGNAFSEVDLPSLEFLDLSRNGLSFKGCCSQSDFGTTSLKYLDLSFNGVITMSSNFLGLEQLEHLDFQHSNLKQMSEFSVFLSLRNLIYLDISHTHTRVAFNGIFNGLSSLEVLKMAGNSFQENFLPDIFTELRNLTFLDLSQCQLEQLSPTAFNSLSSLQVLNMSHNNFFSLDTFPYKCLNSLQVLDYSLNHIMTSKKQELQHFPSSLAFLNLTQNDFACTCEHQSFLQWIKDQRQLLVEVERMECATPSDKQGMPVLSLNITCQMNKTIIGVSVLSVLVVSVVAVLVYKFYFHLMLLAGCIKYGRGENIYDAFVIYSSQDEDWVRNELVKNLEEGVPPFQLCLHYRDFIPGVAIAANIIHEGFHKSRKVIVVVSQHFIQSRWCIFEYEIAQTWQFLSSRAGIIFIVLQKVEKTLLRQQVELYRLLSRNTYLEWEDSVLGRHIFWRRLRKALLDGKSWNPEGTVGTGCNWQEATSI

As for `CC12CC3CC(C)(C1)CC(N)(C3)C2` [Memantine], the cognitive function result with patients with AD is on record as “improve cognitive function”.
Consider `CCOC(=O)C1=CCCC[C@H]1S(=O)(=O)Nc1ccc(F)cc1Cl` [Resatorvid], for which the TLR4 signaling entry at TLR4 is “suppress TLR4 signaling”. Also, the “binding site in TLR4” value at TLR4 (intracellular domain of TLR4) is on record as “binding directly to a specific amino acid Cys747”. Also, in data set [1], the “TIRAP-mediated activation of NF-κB” value is reported as “inhibit”; the “TRAM-mediated activation of NF-κB and interferon-sensitive response element” value was “inhibit”.
